Test results as given in patent US11629143B2, “HipK4 inhibitors and uses thereof” (Vibliome Therapeutics, LLC, priority 2020, dated 2023).

Experiments:
Test in all cases: Kinase panel (mobility shift)
Format in all cases: biochemical
EPH-B2 = molecular target: T1, EPH-B2 (Homo sapiens, UniProt P29323); settings: at 5 um
T1 sequence (P29323 19-1055): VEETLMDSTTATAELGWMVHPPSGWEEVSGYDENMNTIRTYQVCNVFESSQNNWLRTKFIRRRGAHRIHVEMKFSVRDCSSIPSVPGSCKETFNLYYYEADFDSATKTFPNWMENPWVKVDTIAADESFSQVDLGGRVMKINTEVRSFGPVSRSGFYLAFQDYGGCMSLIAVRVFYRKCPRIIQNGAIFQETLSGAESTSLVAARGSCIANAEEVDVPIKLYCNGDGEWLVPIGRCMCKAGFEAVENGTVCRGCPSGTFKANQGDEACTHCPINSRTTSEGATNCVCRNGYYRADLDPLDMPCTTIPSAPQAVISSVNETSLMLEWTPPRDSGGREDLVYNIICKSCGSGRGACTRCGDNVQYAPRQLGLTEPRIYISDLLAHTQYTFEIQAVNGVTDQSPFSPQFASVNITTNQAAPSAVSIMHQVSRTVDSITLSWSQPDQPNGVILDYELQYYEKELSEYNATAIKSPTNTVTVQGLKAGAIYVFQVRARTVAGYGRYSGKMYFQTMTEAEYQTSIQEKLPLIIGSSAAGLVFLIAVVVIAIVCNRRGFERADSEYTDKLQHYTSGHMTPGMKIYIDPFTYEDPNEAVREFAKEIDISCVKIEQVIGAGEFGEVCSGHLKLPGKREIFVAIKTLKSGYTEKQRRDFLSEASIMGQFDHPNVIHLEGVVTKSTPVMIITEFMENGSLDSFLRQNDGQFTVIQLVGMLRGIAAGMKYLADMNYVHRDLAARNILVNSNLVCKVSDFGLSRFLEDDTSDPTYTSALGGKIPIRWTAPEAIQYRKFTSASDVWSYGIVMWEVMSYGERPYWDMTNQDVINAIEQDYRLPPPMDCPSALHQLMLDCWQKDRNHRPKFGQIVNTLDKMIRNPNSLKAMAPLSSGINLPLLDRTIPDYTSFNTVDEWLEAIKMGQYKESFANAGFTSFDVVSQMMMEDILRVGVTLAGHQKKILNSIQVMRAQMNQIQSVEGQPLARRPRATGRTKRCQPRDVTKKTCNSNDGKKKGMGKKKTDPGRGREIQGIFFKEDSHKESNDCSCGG
Method in brief: (§1)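 Each kinase was incubated with a fluorescently labeled substrate and compound in a standard reaction mix. After the reaction was stopped, product and substrate were separated on microfluidic chips by electrophoretic mobility shift. Activity came from comparing product and substrate peak fluorescence, graded A (95% or greater), B (90%-94%) or C (80%-89%) at 5 um.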

HIPK3 = HIPK3 (Homo sapiens, UniProt Q9H422)
Sequence of HIPK3 (Q9H422 whole entry, species assumed): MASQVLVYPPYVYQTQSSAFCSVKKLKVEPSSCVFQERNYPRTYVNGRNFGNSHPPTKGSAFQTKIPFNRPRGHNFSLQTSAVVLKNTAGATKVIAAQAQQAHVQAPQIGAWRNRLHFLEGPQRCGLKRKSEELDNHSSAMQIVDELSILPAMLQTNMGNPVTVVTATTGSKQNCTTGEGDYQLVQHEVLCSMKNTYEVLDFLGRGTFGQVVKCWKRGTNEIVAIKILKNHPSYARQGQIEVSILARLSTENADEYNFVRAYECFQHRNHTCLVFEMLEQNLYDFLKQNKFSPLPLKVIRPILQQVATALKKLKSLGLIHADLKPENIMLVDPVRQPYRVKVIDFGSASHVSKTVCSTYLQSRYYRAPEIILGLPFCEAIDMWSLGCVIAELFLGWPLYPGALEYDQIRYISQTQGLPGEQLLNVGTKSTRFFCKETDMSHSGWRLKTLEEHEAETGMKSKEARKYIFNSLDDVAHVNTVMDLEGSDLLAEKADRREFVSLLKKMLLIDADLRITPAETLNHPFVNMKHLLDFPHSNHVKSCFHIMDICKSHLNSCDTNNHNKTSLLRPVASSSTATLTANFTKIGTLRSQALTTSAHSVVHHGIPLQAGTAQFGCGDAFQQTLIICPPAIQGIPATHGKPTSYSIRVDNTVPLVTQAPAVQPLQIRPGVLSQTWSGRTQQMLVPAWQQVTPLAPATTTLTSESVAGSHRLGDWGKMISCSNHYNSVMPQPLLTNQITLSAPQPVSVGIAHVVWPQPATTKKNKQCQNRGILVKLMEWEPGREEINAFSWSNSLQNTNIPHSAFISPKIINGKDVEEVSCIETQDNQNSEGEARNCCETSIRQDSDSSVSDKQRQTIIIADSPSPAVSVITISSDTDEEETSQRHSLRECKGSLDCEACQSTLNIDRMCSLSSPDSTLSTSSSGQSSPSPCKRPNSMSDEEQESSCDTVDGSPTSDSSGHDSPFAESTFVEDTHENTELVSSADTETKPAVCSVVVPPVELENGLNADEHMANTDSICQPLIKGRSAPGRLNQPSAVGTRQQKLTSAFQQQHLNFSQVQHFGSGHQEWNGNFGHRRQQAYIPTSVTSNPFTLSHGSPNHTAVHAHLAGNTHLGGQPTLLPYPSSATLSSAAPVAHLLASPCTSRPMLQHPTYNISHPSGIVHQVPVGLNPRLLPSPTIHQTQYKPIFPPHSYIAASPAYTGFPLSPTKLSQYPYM
Method in brief: as §1

P38-b = P38-b (Homo sapiens, UniProt Q15759)
Sequence of P38-b (Q15759 whole entry, species assumed): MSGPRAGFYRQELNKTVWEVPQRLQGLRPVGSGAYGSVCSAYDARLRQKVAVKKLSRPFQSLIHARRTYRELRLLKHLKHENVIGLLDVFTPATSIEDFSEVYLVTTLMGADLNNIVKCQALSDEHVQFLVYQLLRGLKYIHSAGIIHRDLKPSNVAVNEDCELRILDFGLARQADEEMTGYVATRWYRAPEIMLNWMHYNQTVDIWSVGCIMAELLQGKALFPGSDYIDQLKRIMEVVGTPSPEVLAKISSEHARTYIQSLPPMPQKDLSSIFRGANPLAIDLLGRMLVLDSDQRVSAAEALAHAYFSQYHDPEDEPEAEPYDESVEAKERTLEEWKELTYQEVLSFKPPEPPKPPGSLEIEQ
Method in brief: as §1

PDGFR-b = PDGFR-b (Homo sapiens, UniProt P09619)
Sequence of PDGFR-b (P09619 33-1106, species assumed): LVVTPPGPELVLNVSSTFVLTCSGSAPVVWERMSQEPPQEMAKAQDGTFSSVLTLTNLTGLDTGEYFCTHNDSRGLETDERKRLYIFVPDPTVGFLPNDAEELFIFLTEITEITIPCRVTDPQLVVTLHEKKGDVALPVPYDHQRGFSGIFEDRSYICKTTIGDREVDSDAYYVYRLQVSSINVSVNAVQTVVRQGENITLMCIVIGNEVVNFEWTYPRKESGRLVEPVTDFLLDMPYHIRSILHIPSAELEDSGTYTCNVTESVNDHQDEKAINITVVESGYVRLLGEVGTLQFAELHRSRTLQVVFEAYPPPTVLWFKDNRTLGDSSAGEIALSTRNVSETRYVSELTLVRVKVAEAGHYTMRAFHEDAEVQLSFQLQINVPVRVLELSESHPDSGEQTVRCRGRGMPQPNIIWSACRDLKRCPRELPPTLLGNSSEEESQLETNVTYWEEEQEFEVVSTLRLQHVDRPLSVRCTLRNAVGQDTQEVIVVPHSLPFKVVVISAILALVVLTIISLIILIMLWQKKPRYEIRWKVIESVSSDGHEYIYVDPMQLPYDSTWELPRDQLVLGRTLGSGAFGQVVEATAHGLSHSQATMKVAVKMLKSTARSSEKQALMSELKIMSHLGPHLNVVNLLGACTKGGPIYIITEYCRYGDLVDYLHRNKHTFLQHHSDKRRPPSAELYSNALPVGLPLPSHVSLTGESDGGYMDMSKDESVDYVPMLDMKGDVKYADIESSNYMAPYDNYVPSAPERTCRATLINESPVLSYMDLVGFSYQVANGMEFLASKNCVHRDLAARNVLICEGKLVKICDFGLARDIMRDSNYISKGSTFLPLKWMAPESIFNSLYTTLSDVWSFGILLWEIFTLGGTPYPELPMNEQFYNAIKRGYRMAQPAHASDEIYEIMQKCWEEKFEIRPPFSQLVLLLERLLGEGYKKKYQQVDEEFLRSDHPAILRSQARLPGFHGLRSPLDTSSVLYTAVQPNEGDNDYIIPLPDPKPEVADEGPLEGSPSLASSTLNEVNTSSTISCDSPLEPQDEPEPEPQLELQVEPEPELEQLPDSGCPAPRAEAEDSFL
Method in brief: as §1

RIPK2 = RIPK2 (Homo sapiens, UniProt O43353)
Sequence of RIPK2 (O43353 whole entry, species assumed): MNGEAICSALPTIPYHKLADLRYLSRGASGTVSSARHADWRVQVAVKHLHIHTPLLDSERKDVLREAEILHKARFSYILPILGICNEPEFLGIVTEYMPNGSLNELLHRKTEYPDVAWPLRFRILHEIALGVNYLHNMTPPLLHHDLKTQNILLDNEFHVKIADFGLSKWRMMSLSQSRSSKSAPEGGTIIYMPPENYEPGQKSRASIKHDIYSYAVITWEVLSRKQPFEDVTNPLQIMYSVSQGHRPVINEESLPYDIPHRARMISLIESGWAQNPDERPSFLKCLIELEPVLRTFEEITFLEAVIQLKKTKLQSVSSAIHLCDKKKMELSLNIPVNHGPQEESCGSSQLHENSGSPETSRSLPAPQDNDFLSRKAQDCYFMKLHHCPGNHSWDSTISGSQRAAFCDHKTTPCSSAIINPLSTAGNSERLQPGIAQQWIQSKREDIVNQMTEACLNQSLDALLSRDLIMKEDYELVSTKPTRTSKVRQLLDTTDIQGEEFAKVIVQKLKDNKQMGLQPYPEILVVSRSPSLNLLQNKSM
Method in brief: as §1

TAOK2 = molecular target: T2, TAOK2 (Homo sapiens, UniProt Q9UL54)
T2 sequence (Q9UL54 1-1235): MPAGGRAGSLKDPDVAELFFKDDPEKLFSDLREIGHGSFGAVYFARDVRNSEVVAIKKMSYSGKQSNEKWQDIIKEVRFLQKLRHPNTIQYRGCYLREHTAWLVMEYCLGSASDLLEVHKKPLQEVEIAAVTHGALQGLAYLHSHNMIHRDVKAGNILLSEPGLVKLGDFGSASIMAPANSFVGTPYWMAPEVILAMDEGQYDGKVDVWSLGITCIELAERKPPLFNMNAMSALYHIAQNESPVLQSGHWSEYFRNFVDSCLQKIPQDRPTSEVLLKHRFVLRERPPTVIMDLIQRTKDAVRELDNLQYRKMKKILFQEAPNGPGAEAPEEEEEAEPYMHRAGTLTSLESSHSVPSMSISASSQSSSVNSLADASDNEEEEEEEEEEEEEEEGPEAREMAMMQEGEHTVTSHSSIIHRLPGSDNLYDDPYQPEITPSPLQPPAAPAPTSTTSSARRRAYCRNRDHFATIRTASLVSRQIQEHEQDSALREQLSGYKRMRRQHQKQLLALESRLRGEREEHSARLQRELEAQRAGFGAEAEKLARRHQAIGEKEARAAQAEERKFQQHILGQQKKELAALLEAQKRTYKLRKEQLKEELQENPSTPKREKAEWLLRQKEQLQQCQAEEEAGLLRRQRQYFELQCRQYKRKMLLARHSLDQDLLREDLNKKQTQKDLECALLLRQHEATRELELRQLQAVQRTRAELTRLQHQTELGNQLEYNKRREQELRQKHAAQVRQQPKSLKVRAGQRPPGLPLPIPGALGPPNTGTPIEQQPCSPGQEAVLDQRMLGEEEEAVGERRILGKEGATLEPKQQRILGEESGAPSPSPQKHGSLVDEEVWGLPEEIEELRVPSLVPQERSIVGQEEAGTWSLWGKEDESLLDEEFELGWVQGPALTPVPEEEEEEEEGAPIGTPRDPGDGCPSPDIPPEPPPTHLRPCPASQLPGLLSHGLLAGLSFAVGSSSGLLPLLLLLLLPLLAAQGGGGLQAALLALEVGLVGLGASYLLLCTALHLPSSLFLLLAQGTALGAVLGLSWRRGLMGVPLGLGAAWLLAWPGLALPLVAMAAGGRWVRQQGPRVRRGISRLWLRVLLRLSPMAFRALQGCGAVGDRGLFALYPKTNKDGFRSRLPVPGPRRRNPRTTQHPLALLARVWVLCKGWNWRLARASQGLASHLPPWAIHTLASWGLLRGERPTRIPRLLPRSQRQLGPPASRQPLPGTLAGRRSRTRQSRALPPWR
Method in brief: as §1

SMILES	inhibition of kinase activity, EPH-B2 (EPH-B2)	inhibition at 5 µM (HIPK3)	inhibition at 5 µM (P38-b)	inhibition at 5 µM (PDGFR-b)	inhibition at 5 µM (RIPK2)	inhibition at 5 µM (TAOK2)
CSc1nc(C(=O)Nc2ccc(Oc3ccnc(C(=O)NC4COC4)c3)c(F)c2)c(-c2ccc(F)cc2)o1 [Compound 31]	D (category D for 50-79)	< 50%	< 50%	< 50%	50 to 79%	< 50%
CSc1nc(C(=O)Nc2ccc(Oc3ccnc(C(=O)NC4CNC4)c3)c(F)c2)c(-c2ccc(F)s2)o1 [Compound 27]	E (category E is less than 50%)	< 50%	< 50%	< 50%	< 50%	< 50%
COc1nc(C(=O)Nc2ccc(Oc3ccnc(C(=O)NC4COC4)c3)c(F)c2)c(-c2ccc(F)cc2)o1 [Compound 39]	E (category E is less than 50%)	< 50%	< 50%	< 50%	50 to 79%	< 50%
CSc1nc(C(=O)Nc2ccc(Oc3ccnc(-c4cnn(C)c4)c3)c(F)c2)c(-c2ccc(F)cc2)o1 [Compound 11]	B (B=90%-94% at 5 um)	< 50%	80 to 89%	< 50%	50 to 79%	< 50%
CNC(=O)c1cc(Oc2ccc(NC(=O)c3nc(OC)oc3-c3ccc(F)c(F)c3)cc2F)ccn1 [Compound 24]	E (category E is less than 50%)	50 to 79%	< 50%	< 50%	50 to 79%	< 50%
CNC(=O)c1cc(Oc2ccc(NC(=O)c3nc(OCC(F)(F)F)oc3-c3ccc(F)cc3)cc2F)ccn1 [Compound 38]	E (category E is less than 50%)	50 to 79%	< 50%	< 50%	50 to 79%	< 50%
CNC(=O)c1cc(Oc2ccc(NC(=O)c3nc(NC)sc3-c3ccc(F)cc3F)cc2F)ccn1 [Compound 21]	D (category D for 50-79)	50 to 79%	< 50%	< 50%	50 to 79%	< 50%
CNC(=O)c1cc(Oc2ccc(NC(=O)c3nc(SC)oc3-c3ccc(F)cc3F)cc2)ccn1 [Compound 6]	E (category E is less than 50%)	< 50%	< 50%	< 50%	≥ 95%	< 50%
CNC(=O)c1cc(Oc2ccc(NC(=O)c3nc(NC)oc3-c3ccc(F)cc3)cc2F)ccn1 [Compound 14]	D (category D for 50-79)	50 to 79%	< 50%	< 50%	90 to 94%	80 to 89%
CNC(=O)c1cc(Oc2ccc(NC(=O)c3nc(OC)oc3-c3ccc(F)s3)cc2F)ccn1 [Compound 25]	E (category E is less than 50%)	< 50%	< 50%	< 50%	< 50%	< 50%
CSc1nc(C(=O)Nc2ccc(Oc3ccnc(C(=O)NCC(F)(F)F)c3)c(F)c2)c(-c2ccc(F)cc2)o1 [Compound 40]	E (category E is less than 50%)	< 50%	< 50%	< 50%	< 50%	< 50%
CNC(=O)c1cc(Oc2ccc(NC(=O)c3nc(SC(C)C)oc3-c3ccc(F)cc3)cc2F)ccn1 [Compound 34]	C (C=80%-89% at 5 um)	< 50%	50 to 79%	< 50%	50 to 79%	50 to 79%
CSc1nc(C(=O)Nc2ccc(Oc3cc4cnn(C)c4cc3Br)c(F)c2)c(-c2ccc(F)cc2)o1 [Compound 2]	E (category E is less than 50%)	< 50%	50 to 79%	< 50%	< 50%	< 50%
CNC(=O)c1cc(Oc2ccc(NC(=O)c3nc(SC)oc3-c3ccc(F)s3)cc2F)ccn1 [Compound 16]	D (category D for 50-79)	< 50%	< 50%	< 50%	< 50%	< 50%
CNC(=O)c1cc(Oc2ccc(NC(=O)c3nc(S(C)(=O)=O)sc3-c3ccc(F)cc3)cc2F)ccn1 [Compound 13]	E (category E is less than 50%)	80 to 89%	< 50%	< 50%	80 to 89%	< 50%
CNC(=O)c1cc(Oc2ccc(NC(=O)c3nc(NC)sc3-c3ccc(F)cc3C)cc2F)ccn1 [Compound 23]	D (category D for 50-79)	< 50%	< 50%	< 50%	80 to 89%	50 to 79%
CNC(=O)c1cc(Oc2c(F)cc(NC(=O)c3nc(NC)sc3-c3ccc(F)cc3)cc2F)ccn1 [Compound 19]	D (category D for 50-79)	< 50%	< 50%	< 50%	50 to 79%	< 50%
CNC(=O)c1cc(Oc2ccc(NC(=O)c3nc(OC4CC4)oc3-c3ccc(F)cc3)cc2F)ccn1 [Compound 32]	D (category D for 50-79)	50 to 79%	50 to 79%	< 50%	50 to 79%	50 to 79%
CNC(=O)c1cc(Oc2ccc(NC(=O)c3nc(C4CC4)oc3-c3ccc(F)cc3)cc2F)ccn1 [Compound 26]	C (C=80%-89% at 5 um)	50 to 79%	50 to 79%	< 50%	80 to 89%	50 to 79%
